# From patent publication US11952365B2, “Anti-viral compounds” (Aligos Therapeutics, Inc., priority 2020, dated 2024)
# Key:
# HRV3C = HRV3C (Human rhinovirus 14, UniProt P03303); assay: HRV3C protease assay (duplex, SAMDI-MS); assay type: biochemical, HRV; conditions: HRV3C, 30 mins preincubation, class symbols; read-out: HRV IC50
# Outline: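 Readout is SAMDI mass spectrometry: biotinylated substrates, products and internal standards were immobilized on neutravidin monolayers and product formation taken as the AUC ratio to internal standard. Reactions ran 30 min at ambient temperature after 30 min compound preincubation, in duplex with 3CLpro. IC50 values came from four-parameter curve fitting.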
# [1] = tested on: human beta-coronavirus OC43; assay: microbe, parasite or virus in culture; assay type: cell-based; conditions: Betacoronavirus 1, OC43, HeLa, 144 h, OC43 in HeLa cells, 6 days at 33° C., class symbols; read-out: EC50
# [2] = Cytotoxicity plates without OC43 virus (cell-titer-glo); assay type: cell-based, human; conditions: human; HeLa cells without OC43 virus, class symbols
# Outline: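 Run as a virus-free counterpart of the OC43 cytopathic-effect assay. Attached HeLa cells received compound dilutions in EMEM with 2% FBS and were kept 6 days at 33 °C. Cell viability was then measured by CellTiter-Glo luminescence.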
# [3] = tested on: SARS-CoV-2-GHB-03021/2020; assay: SARS-CoV-2 Infection Model in Huh7 Cells; assay type: cell-based; conditions: Severe acute respiratory syndrome coronavirus 2, Huh-7, 96 h, SARS-CoV-2, day 4 p.i., MTS, class symbols
# [4] = tested on: SARS-CoV-2-GHB-03021/2020; assay: microbe, parasite or virus in culture; assay type: cell-based; conditions: Severe acute respiratory syndrome coronavirus 2, Vero C1008, 96 h; read-out: VeroE6 + CP (EC50)
# human cathepsin L = target: T1, human cathepsin L (Homo sapiens, UniProt P07711); assay: cathepsin L assay; assay type: biochemical; conditions: 10 pM human cathepsin L, Z-FR-AMC 2 μM, class symbols
# T1 construct: purchased R&D Systems
# Outline: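 Reactions began by adding 2 μM (final) Z-FR-AMC substrate to 10 pM human cathepsin L that had been preincubated 30 min with inhibitor. Kinetic AMC fluorescence at 355/460 nm over 30 min at 2-min intervals; four-parameter fitting gave IC50 values.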
# in vitro [5] = conditions: human
# in vitro [6] = conditions: African green monkey, VeroE6 + CP (CC50), Vero E6-eGFP cells with CP-100356, absence of virus, MTS; numeric bounds
# 3CLpro = 3CLpro (Severe acute respiratory syndrome coronavirus 2, UniProt P0DTD1); assay: SARS-CoV-2 3CLpro protease assay (duplex, SAMDI-MS); assay type: biochemical; set-up: For the duplex assay, 3CLpro and HRV3C was added; conditions: 3CLpro, 30 mins preincubation, class symbols; read-out: SARS-Cov-2 IC50
Structure (SMILES),IC50 (HRV3C),EC50 [1],CC50 at 6 days [2],EC50 [3],EC50 [4],IC50 (human cathepsin L),CC50 (in vitro [5]),CC50 (in vitro [6]),IC50 (3CLpro)
"O=C(NCc1ccccc1)C(=O)C(C[C@@H]1CCNC1=O)NC(=O)[C@@H]1C[C@@H](C(F)(F)F)CN1C(=O)c1cc2ccccc2[nH]1 (stereo partly drawn) [Compound 19, N-benzyl-3-[[(2S,4R)-1-(1H-indole-2-carbonyl)-4-(trifluoromethyl)pyrrolidin-2-yl]formamido]-2-oxo-4-[(3S)-2-oxopyrrolidin-3-yl]butanamide]",2 to 20 µM,0.1 to 1 µM,> 10 µM,1 to 10 µM,1 to 10 µM,0.1 to 1 µM,> 10 µM,> 100 µM,0.2 to 2 µM
O=C(NCc1ccccc1)C(=O)[C@H](C[C@@H]1CCNC1=O)NC(=O)[C@@H]1C[C@]2(CN1C(=O)c1cc3ccccc3[nH]1)CC2(F)F [Compound 22],2 to 20 µM,1 to 10 µM,> 10 µM,1 to 10 µM,10 to 100 µM,0.1 to 1 µM,> 100 µM,> 100 µM,0.2 to 2 µM
O=C(NCc1ccccc1)C(=O)[C@H](C[C@@H]1CCNC1=O)NC(=O)[C@@H]1C[C@@]2(CN1C(=O)c1cc3ccccc3[nH]1)CC2(F)F [Compound 23],2 to 20 µM,0.1 to 1 µM,> 10 µM,1 to 10 µM,1 to 10 µM,0.1 to 1 µM,> 100 µM,> 100 µM,0.02 to 0.2 µM
O=C(NCc1ccccc1)C(=O)[C@H](C[C@@H]1CCNC1=O)NC(=O)[C@@H]1CC2(CCN1C(=O)c1cc3ccccc3[nH]1)CC2 [Compound 24],20 to 100 µM,0.1 to 1 µM,> 10 µM,1 to 10 µM,1 to 10 µM,0.1 to 1 µM,> 10 µM,> 100 µM,0.02 to 0.2 µM
C[C@@H]1C[C@@H](C(=O)N[C@@H](C[C@@H]2CCNC2=O)C(=O)C(=O)NCc2ccccc2)N(C(=O)c2cc3ccccc3[nH]2)C1 [Compound 25],2 to 20 µM,1 to 10 µM,> 10 µM,10 to 100 µM,10 to 100 µM,0.1 to 1 µM,> 100 µM,> 100 µM,2 to 20 µM
"CC1(C)CCN(C(=O)c2cc3ccccc3[nH]2)[C@H](C(=O)NC(C[C@@H]2CCNC2=O)C(=O)C(=O)NCc2ccccc2)C1 (stereo partly drawn) [Compound 26, (2S)—N-(4-(benzylamino)-3,4-dioxo-1-((S)-2-oxopyrrolidin-3-yl)butan-2-yl)-1-(1H-indole-2-carbonyl)-4,4-dimethylpiperidine-2-carboxamide]",2 to 20 µM,0.1 to 1 µM,> 10 µM,10 to 100 µM,10 to 100 µM,< 0.1 µM,> 100 µM,> 100 µM,0.02 to 0.2 µM
"COc1cccc2[nH]c(C(=O)N3C[C@@H]4CCC[C@@H]4[C@H]3C(=O)N[C@@H](C[C@@H]3CCNC3=O)C(=O)CO)cc12 [Compound 27, (1S,3aR,6aS)—N-[(2S)-4-hydroxy-3-oxo-1-[(3S)-2-oxopyrrolidin-3-yl]butan-2-yl]-2-(4-methoxy-1H-indole-2-carbonyl)-hexahydro-1H-cyclopenta[c]pyrrole-1-carboxamide]",2 to 20 µM,0.1 to 1 µM,> 10 µM,1 to 10 µM,1 to 10 µM,≥ 10 µM,> 100 µM,> 100 µM,< 0.02 µM
"COc1cccc2[nH]c(C(=O)N3C[C@@H]4CCC[C@@H]4[C@H]3C(=O)N[C@@H](C[C@@H]3CCNC3=O)C(=O)COCc3ccccc3)cc12 [Compound 27A, (1S,3aR,6aS)—N-[(2S)-4-(benzyloxy)-3-oxo-1-[(3S)-2-oxopyrrolidin-3-yl]butan-2-yl]-2-(4-methoxy-1H-indole-2-carbonyl)-hexahydro-1H-cyclopenta[c]pyrrole-1-carboxamide]",2 to 20 µM,< 0.1 µM,> 10 µM,1 to 10 µM,1 to 10 µM,≥ 10 µM,> 10 µM,> 100 µM,0.02 to 0.2 µM
CC[C@@H]1C[C@@H](C(=O)N[C@@H](C[C@@H]2CCNC2=O)C(=O)C(=O)NCc2ccccc2)N(C(=O)c2cc3ccccc3[nH]2)C1 [Compound 28],2 to 20 µM,0.1 to 1 µM,> 10 µM,< 1 µM,1 to 10 µM,< 0.1 µM,> 10 µM,> 100 µM,0.2 to 2 µM
"COc1cccc2[nH]c(C(=O)N3C[C@]4(C[C@H]3C(=O)NC(C=O)C[C@@H]3CCCNC3=O)CC4(F)F)cc12 (stereo partly drawn) [Compound 29, (3S,6S)-1,1-difluoro-5-(4-methoxy-1H-indole-2-carbonyl)-N-(1-oxo-3-((S)-2-oxopiperidin-3-yl)propan-2-yl)-5-azaspiro[2.4]heptane-6-carboxamide]",0.02 to 0.2 µM,1 to 10 µM,> 10 µM,1 to 10 µM,1 to 10 µM,0.1 to 1 µM,> 100 µM,> 100 µM,0.02 to 0.2 µM
C=C[C@@H]1C[C@@H](C(=O)N[C@@H](C[C@@H]2CCNC2=O)C(=O)C(=O)NCc2ccccc2)N(C(=O)c2cc3ccccc3[nH]2)C1 [Compound 30],0.2 to 2 µM,0.1 to 1 µM,> 10 µM,1 to 10 µM,1 to 10 µM,< 0.1 µM,> 100 µM,> 100 µM,0.02 to 0.2 µM
"COc1cccc2[nH]c(C(=O)N3CC4(CC4)C[C@H]3C(=O)N[C@@H](C[C@@H]3CCNC3=O)C(=O)CO)cc12 [Compound 31, (6S)—N-[(2S)-4-hydroxy-3-oxo-1-[(3S)-2-oxopyrrolidin-3-yl]butan-2-yl]-5-(4-methoxy-1H-indole-2-carbonyl)-5-azaspiro[2.4]heptane-6-carboxamide]",20 to 100 µM,0.1 to 1 µM,> 10 µM,10 to 100 µM,1 to 10 µM,≥ 10 µM,> 100 µM,> 100 µM,< 0.02 µM
COc1cccc2[nH]c(C(=O)N3C[C@H](c4ccccc4)C[C@H]3C(=O)N[C@@H](C[C@@H]3CCNC3=O)C(=O)CO)cc12 [Compound 32],0.2 to 2 µM,0.1 to 1 µM,> 10 µM,1 to 10 µM,1 to 10 µM,≥ 10 µM,> 100 µM,> 100 µM,0.02 to 0.2 µM
"COc1cccc2[nH]c(C(=O)N3C[C@]4(C[C@H]3C(=O)NC(C[C@@H]3CCCNC3=O)C(=O)C(=O)NCc3ccccc3)CC4(F)F)cc12 (stereo partly drawn) [Compound 33, N-benzyl-3-{[(3S,6S)-1,1-difluoro-5-(4-methoxy-1H-indole-2-carbonyl)-5-azaspiro[2.4]heptan-6-yl]formamido}-2-oxo-4-[(3S)-2-oxopiperidin-3-yl]butanamide]",0.2 to 2 µM,0.1 to 1 µM,> 10 µM,1 to 10 µM,< 1 µM,0.1 to 1 µM,> 100 µM,> 100 µM,0.02 to 0.2 µM
COc1cccc2[nH]c(C(=O)N3C[C@]4(C[C@H]3C(=O)N[C@@H](C[C@@H]3CCCNC3=O)C(=O)C(=O)NC(C)C)CC4(F)F)cc12 [Compound 34],0.2 to 2 µM,0.1 to 1 µM,> 10 µM,10 to 100 µM,1 to 10 µM,≥ 10 µM,> 100 µM,> 100 µM,0.02 to 0.2 µM
O=C(NCc1ccccc1)C(=O)[C@H](C[C@@H]1CCNC1=O)NC(=O)[C@@H]1[C@H]2CCC[C@H]2CN1C(=O)c1nc2ccccc2[nH]1 [Compound 35],2 to 20 µM,1 to 10 µM,> 10 µM,10 to 100 µM,10 to 100 µM,≥ 10 µM,> 100 µM,> 100 µM,0.02 to 0.2 µM
"COc1cccc2[nH]c(C(=O)N3C[C@@H]4CCC[C@@H]4[C@H]3C(=O)NC(C[C@@H]3CCNC3=O)C(=O)C(=O)NCc3ccccc3)nc12 (stereo partly drawn) [Compound 36, 3-[[(1S,3aR,6aS)-2-(4-methoxy-1H-1,3-benzodiazole-2-carbonyl)-hexahydro-1H-cyclopenta[c]pyrrol-1-yl]formamido]-N-benzyl-2-oxo-4-[(3S)-2-oxopyrrolidin-3-yl]butanamide]",20 to 100 µM,10 to 100 µM,> 10 µM,10 to 100 µM,10 to 100 µM,≥ 10 µM,> 100 µM,> 100 µM,0.02 to 0.2 µM
